Where two headings read alike, the source gives them in different places.
What was measured:
[1] = target: T1, Human recombinant C-ter-His-FLAG-HDAC1 (Homo sapiens, UniProt Q13547); assay: HDAC-Glo I/II enzyme assay, HDAC1; assay type: biochemical; conditions: ± standard error, three independent measurements
T1 construct: His (C); FLAG (C); purchased BPS Bioscience 50051

HDAC-3/NcoR2 = target: T2, HDAC-3/NcoR2 (Homo sapiens, UniProt O15379); assay: HDAC-Glo I/II enzyme assay, HDAC3; assay type: biochemical; conditions: ± standard error, three independent measurements
T2 construct: purchased BPS Bioscience 50003
T2 sequence (O15379 whole entry): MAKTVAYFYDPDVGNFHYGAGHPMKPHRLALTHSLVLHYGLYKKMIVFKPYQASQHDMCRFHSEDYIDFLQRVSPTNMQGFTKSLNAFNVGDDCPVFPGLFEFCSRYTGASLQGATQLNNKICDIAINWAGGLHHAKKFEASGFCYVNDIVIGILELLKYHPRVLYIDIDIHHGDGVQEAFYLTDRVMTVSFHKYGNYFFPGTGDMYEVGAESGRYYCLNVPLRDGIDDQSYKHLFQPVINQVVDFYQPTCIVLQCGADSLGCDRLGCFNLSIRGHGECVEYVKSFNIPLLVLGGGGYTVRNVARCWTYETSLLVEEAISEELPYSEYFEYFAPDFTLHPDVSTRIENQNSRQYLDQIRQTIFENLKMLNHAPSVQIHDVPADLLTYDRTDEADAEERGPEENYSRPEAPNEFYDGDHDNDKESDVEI
T2 sequence (Q9Y618 395-489 partner limits assumed): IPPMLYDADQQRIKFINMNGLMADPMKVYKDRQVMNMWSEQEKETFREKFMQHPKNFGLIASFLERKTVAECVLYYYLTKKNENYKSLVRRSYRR

N-ter-GST-HDAC-6 = target: T3, N-ter-GST-HDAC-6 (Homo sapiens, UniProt Q9UBN7); assay: HDAC-Glo I/II enzyme assay, HDAC6; assay type: biochemical; conditions: ± standard error, three independent measurements
T3 construct: GST (N); purchased BPS Bioscience 50006
T3 sequence (Q9UBN7 1-1215): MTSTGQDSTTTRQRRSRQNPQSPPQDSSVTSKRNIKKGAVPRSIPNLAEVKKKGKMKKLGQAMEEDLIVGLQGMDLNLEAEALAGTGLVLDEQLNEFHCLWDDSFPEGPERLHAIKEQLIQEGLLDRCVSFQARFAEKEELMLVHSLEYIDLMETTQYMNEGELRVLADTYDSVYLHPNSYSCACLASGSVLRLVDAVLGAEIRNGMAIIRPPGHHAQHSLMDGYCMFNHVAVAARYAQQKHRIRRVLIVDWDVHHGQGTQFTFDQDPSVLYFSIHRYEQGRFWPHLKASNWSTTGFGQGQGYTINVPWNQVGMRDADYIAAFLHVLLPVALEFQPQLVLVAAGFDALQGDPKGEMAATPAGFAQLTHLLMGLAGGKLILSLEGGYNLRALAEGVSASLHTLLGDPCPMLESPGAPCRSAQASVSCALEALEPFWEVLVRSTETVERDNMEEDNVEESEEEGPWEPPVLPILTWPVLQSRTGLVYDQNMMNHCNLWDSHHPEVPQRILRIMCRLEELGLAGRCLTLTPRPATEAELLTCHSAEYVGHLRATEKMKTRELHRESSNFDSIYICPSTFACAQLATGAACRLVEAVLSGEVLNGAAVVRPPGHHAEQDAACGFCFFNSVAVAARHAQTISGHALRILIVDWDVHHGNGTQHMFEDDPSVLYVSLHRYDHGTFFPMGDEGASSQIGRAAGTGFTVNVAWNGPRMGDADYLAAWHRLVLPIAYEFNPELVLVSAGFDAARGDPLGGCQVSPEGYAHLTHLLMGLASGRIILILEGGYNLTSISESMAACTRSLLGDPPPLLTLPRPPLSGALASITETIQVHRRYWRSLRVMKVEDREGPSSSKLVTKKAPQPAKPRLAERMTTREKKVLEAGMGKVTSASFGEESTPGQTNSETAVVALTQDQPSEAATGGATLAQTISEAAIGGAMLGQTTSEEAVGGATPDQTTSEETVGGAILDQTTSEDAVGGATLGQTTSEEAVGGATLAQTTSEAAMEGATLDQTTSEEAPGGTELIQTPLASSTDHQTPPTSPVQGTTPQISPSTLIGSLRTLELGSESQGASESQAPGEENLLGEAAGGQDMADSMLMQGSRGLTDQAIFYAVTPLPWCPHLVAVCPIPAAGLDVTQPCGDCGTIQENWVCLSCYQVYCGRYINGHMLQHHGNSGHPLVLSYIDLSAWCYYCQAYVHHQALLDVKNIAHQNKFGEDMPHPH

C-terminal His-tag-HDAC8 = target: T4, C-terminal His-tag-HDAC8 (Homo sapiens, UniProt Q9BY41); assay: HDAC-Glo I/II enzyme assay, HDAC8; assay type: biochemical; conditions: ± standard error, three independent measurements
T4 construct: His (C); purchased BPS Bioscience 50008
T4 sequence (Q9BY41 1-377): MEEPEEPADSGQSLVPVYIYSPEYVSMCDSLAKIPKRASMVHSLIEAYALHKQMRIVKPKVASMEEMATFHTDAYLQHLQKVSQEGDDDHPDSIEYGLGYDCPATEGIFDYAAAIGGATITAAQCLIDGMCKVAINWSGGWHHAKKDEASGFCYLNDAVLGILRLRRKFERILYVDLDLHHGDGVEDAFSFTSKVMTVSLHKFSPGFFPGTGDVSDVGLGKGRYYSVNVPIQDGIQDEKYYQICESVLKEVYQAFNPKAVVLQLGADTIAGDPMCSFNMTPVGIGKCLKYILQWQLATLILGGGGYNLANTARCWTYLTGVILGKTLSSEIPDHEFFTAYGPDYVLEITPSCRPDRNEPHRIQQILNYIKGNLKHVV

THP-1 = assay: Cell Titer-Glo cell viability, THP-1; assay type: cell-based; conditions: Homo sapiens, read-out: IC50 cell viability THP-1
MOLM-13 [2] = assay: Cell Titer-Glo cell viability, MOLM-13; assay type: cell-based; conditions: Homo sapiens, read-out: IC50 cell viability MOLM-13
K-562 = assay: Cell Titer-Glo cell viability, K-562; assay type: cell-based; conditions: Homo sapiens, read-out: IC50 cell viability K-562
Jurkat = assay: Cell Titer-Glo cell viability, Jurkat; assay type: cell-based; conditions: Homo sapiens, 120 h, read-out: IC50 cell viability Jurkat
HDAC6 [3] = target: T5, HDAC6 (Homo sapiens, UniProt Q9UBN7); assay: Cellular thermal shift assay (CETSA), HDAC6; assay type: cell-based; conditions: THP-1 cells, 1 h; 4 μM (methods, Figure 2), Figure S14 legend 500 nM
T5 construct: endogenous in cells; host or cells: THP-1
T5 sequence (Q9UBN7 1-1215): T3 sequence (Q9UBN7 1-1215)
Procedure: (§1) THP-1 cells, 1 × 10^7 cells at a density of 1 × 10^6 cells/mL, were treated with 4 μM of test compounds (1 h, 37 °C, 5% CO2). Cells were centrifuged, and the pellet was resuspended with 1 × Phosphate Buffer Saline (Gibco, Grand Island, NY, USA, #10010023) containing 1 × Protease Inhibitor Cocktail (Cell Signaling Technology, Beverly, MA, USA, #5871) and 1 mM phenylmethylsulfonyl fluoride (PMSF, Sigma Aldrich, St. Louis, MO, USA, #10837091001). The suspension volume was divided equally and heated for 3 min at 43–64 °C in a T100 Thermal Cycler (Bio-rad, Hercules, CA, USA). For protein extraction, cells were snap-frozen using liquid nitrogen, thawed twice (25 °C, 1 min), then centrifuged (20,000× g, 15 min, 4 °C). Following centrifugation, protein containing supernatants were denatured at 70 °C for 10 min and loaded on SDS-PAGE gels (Bio-Rad, Hercules, CA, USA, 161-0317). After electrophoresis (100 V and 60 min), proteins were transferred onto PVDF membrane (Bio-Rad #1620177) at 200 mA for 180 min and immunoblotted with primary antibodies (1:10,000 dilution for anti-LSD1 Antibody ab129195 [EPR6825], 1:1000 dilution for Anti-HDAC6 Antibody CST 7558, 1:1000 dilution for Anti-HDAC1 Antibody ab53091, 1:1000 dilution for Anti-HDAC8 Antibody ab187139, 1:5000 dilution for Anti-beta Actin Antibody ab8227) overnight at 4 °C. The next day, membranes were incubated with HRP-conjugated secondary antibodies (1:5000 dilution for Abcam, Cambridge, UK, ab205718) for 1 h at room temperature. The signal was detected with BIORAD Chemi-Doc XRS+ System and by using Immobilon Forte Western HRP Substrate (WBLUF0500).

HDAC8 = target: T6, HDAC8 (Homo sapiens, UniProt Q9BY41); assay: Cellular thermal shift assay (CETSA), HDAC8; assay type: cell-based; conditions: THP-1 cells, 1 h; 4 μM (methods, Figure 2), Figure S14 legend 500 nM
T6 construct: endogenous in cells; host or cells: THP-1
T6 sequence (Q9BY41 1-377): T4 sequence (Q9BY41 1-377)
Procedure: (§2) THP-1 cells, 1 × 10^7 cells at a density of 1 × 10^6 cells/mL, were treated with 4 μM of test compounds (1 h, 37 °C, 5% CO2). Cells were centrifuged, and the pellet was resuspended with 1 × Phosphate Buffer Saline (Gibco, Grand Island, NY, USA, #10010023) containing 1 × Protease Inhibitor Cocktail (Cell Signaling Technology, Beverly, MA, USA, #5871) and 1 mM phenylmethylsulfonyl fluoride (PMSF, Sigma Aldrich, St. Louis, MO, USA, #10837091001). The suspension volume was divided equally and heated for 3 min at 43–64 °C in a T100 Thermal Cycler (Bio-rad, Hercules, CA, USA). For protein extraction, cells were snap-frozen using liquid nitrogen, thawed twice (25 °C, 1 min), then centrifuged (20,000× g, 15 min, 4 °C). Following centrifugation, protein containing supernatants were denatured at 70 °C for 10 min and loaded on SDS-PAGE gels (Bio-Rad, Hercules, CA, USA, 161-0317). […] The signal was detected with BIORAD Chemi-Doc XRS+ System and by using Immobilon Forte Western HRP Substrate (WBLUF0500).

HDAC1 = target: T7, HDAC1 (Homo sapiens, UniProt Q13547); assay: Cellular thermal shift assay (CETSA), HDAC1; assay type: cell-based; conditions: THP-1 cells, 1 h; 4 μM (methods), Figure S14 legend 500 nM
T7 construct: endogenous in cells; host or cells: THP-1
T7 sequence (Q13547 whole entry): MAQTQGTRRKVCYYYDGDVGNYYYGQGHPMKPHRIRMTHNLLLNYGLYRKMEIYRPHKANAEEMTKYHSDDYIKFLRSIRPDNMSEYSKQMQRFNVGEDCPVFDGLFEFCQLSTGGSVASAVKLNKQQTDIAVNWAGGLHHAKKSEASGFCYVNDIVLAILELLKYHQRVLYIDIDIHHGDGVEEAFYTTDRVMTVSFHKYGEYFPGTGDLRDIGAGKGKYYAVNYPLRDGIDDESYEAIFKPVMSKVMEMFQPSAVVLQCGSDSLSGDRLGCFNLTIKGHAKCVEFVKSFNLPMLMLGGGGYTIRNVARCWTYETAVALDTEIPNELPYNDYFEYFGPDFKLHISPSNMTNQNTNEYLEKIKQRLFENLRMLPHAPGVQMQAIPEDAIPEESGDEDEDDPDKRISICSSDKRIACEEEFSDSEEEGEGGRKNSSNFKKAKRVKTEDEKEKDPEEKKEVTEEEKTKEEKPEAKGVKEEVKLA
Procedure: as §2

LSD1 [4] = target: T8, LSD1 (Homo sapiens, UniProt O60341); assay: LSD1 MALDI-TOF enzyme assay; assay type: biochemical; design: made in house; conditions: ± standard error, three independent measurements
LSD1 [5] = target: T8, LSD1; assay: Cellular thermal shift assay (CETSA), LSD1; assay type: cell-based; design: endogenous in cells; host or cells: THP-1; conditions: THP-1 cells, 1 h; 4 μM (methods, Figure 2), Figure S14 legend 500 nM
Procedure: as §1

THP-1 cells = assay: Caspase 3/7 and 7-AAD staining (flow cytometry); conditions: doxorubicin alone at sublethal concentration (62.5 nM, 48 h)
[6] = system: LSD1 and HDAC substrates in THP-1 cells; assay: Western blot of methylation and acetylation levels of LSD1 and HDAC substrates; assay type: cell-based; conditions: for nuclear histone H3 acetylation (H3K18ac and H3K27ac levels), change vs DMSO: 24 h (ricolinostat 0.75 μM or 4 μM)
MOLM-13 [7] = assay: Combination treatment with doxorubicin, MOLM-13 cell viability; assay type: cell-based; conditions: iDual 0.5 μM, iHDAC6 0.5 μM, GSK2879552 1.25 μM, ricolinostat […], 72 h then + doxorubicin 2 nM 48 h
HDAC6 [8] = target: T5, HDAC6; design: method as in PMID 22262760; conditions: cited from earlier work
LSD2 = conditions: cited from earlier work
MAOs = conditions: cited from earlier work
[9] = cited from earlier work
[10] = THP-1, 120 h, ± standard deviation, three biological repeats
[11] = MOLM-13, 120 h, ± standard deviation, three biological repeats
[12] = K562, 120 h, ± standard deviation, three biological repeats
[13] = ± standard deviation, three biological repeats

T1 sequence (Q13547 whole entry): as above

Compound	IC50 [1] [µM]	IC50 (HDAC-3/NcoR2) [µM]	IC50 (N-ter-GST-HDAC-6) [µM]	IC50 (C-terminal His-tag-HDAC8) [µM]	IC50 (THP-1; [10]) [µM]	IC50 (MOLM-13 [2]; [11]) [µM]	IC50 (K-562; [12]) [µM]	IC50 (Jurkat; [13]) [µM]	thermal stabilization of HDAC6 (CETSA) (HDAC6 [3])	thermal stabilization of HDAC1 (CETSA) (HDAC1)	IC50 (LSD1 [4]) [nM]	thermal stabilization of LSD1 (CETSA) (LSD1 [5])	nuclear histone H3 acetylation (H3K18ac and H3K27ac levels), change vs DMSO ([6]; 4 μM)	cell viability after priming with compound and co-treatment with doxorubicin 2 nM (MOLM-13 [7])	other results
O=C(O)c1ccc(CN2CCC(CNC3(c4ccccc4)CC3)CC2)cc1 [iNC]	> 100	> 100	> 100	> 100	> 20	> 20	> 20	> 20	did not exhibit target engagement	did not exhibit target engagement	> 100000	did not exhibit target engagement	–	–	thermal stabilization of HDAC8 (CETSA) (HDAC8): did not exhibit target engagement
COc1cccc2c1C(=O)c1c(O)c3c(c(O)c1C2=O)C[C@@](O)(C(=O)CO)C[C@@H]3O[C@H]1C[C@H](N)[C@H](O)[C@H](C)O1 [doxorubicin]	–	–	–	–	–	–	–	–	–	–	–	–	–	–	cells in the apoptosis/dead quadrant (caspase 3/7 staining), drug alone (THP-1 cells): 30%
O=C(CCCCCCNC(=O)c1cnc(N(c2ccccc2)c2ccccc2)nc1)NO [ricolinostat, reference compound]	–	–	–	–	–	–	–	–	stabilizing HDAC6	stabilized	–	–	greater effect	next in terms of activity	IC50 (THP-1; THP-1, 120 h): 2.9 ± 0.1 µM; IC50 (MOLM-13 [2]; MOLM-13, 120 h): 0.2 ± 0.03 µM; IC50 (K-562; K562, 120 h): 2.6 ± 0.3 µM; IC50 (Jurkat): 1.9 ± 0.003 µM; acetylation levels of α-tubulin, fold increase vs DMSO ([6]; 4 μM, 24 h): 25 fold; acetylation levels of α-tubulin, fold increase vs DMSO ([6]; ~0.75 μM (similar fraction of IC50), 24 h): 20 fold; HDAC6/HDAC1 isoform selectivity reported (HDAC6 [8]): approximately 10 fold
O=C(O)c1ccc(CN2CCC(CN[C@@H]3C[C@H]3c3ccccc3)CC2)cc1 [GSK2879552, reference compound]	> 100	> 100	> 100	> 100	> 20	15 ± 3.5	> 20	> 20	–	–	1540 ± 410	stabilizing LSD1 only	did not significantly alter	relatively ineffective	levels of the histone substrate H3K4me2 ([6]; 4 μM, 24 h): increase; inhibition of LSD2 (LSD2): undetectable levels of inhibition; inhibition of MAOs (MAOs): undetectable levels of inhibition; in vivo oral bioavailability [9]: favorable
